Consider two molecules from patent US20250090659A1, “COMBINATION THERAPY WITH AN ANTI-CD19 ANTIBODY AND PARSACLISIB” (Incyte Corporation, priority 2020, published 2025).

The subject of assay [1] is Pfeiffer cells. Kind of assay: Cell proliferation (Cell titer Glo), Pfeiffer. Format: cell-based. Particulars: no NK cells, 24, 48 and 72 hours. As to the method: (§1) Besides ADCC cytotoxicity, effects of tafasitamab and parsaclisib on cell proliferation were also evaluated by treating target cells with matrix dosing of tafasitamab and parsaclisib in the absence of NK cells. After 24 hours, 48 hours, and 72 hours, proliferation was assessed by adding 100 ul of Cell titer Glo to wells containing 100 ul of treated cells in duplicates. The data was presented as RLUs, which is in proportion to cell proliferation.

Assay [2] concerns SuDHL6 cells. Kind of assay: Cell proliferation (Cell titer Glo), SuDHL6. Format: cell-based. Particulars: no NK cells, 24, 48 and 72 hours. As for the experimental part:
as §1
(In general: In ATP-based viability assays light output follows the ATP content of the culture.)

Assay [3] relates to SuDHL4 cells. Kind of assay: Cell proliferation (Cell titer Glo), SuDHL4. Format: cell-based. Particulars: no NK cells, 24, 48 and 72 hours. As for the experimental part: as §1
Assay [4] concerns A20 murine lymphoma cells. Kind of assay: In vivo efficacy in A20 mouse lymphoma model. The arrangement: species or system Balb/c mice. As for the experimental part: Female Balb/c mice were subcutaneously inoculated with 5×10^5 A20 murine lymphoma cells to form flank tumors. When tumors reached approximately 100 mm^3, mice were randomized into 4 groups for dosing (N=10 mice/group). Dosing groups were as follows: (1) Vehicle (5% dimethyl acetimde+95% methylcellulose)-administered by mouth twice a day; (2) Murine anti-CD19 antibody (12014B35 from Absolute Antibody)—[…] administered intraperitoneally once weekly; (3) Parsaclisib (INCB050465)—3 mg/kg administered by mouth twice a day; and (4) Murine anti-CD19 antibody+Parsaclisib.
Tumor volumes were measured twice weekly. The study concluded when mean tumor volumes of each group reached 2000 mm^3. All doses were tolerated as assessed by body weights. Percent tumor growth inhibition (TGI %) was calculated by: [1-(mean tumor volume of test group)/(mean tumor volume of vehicle group)]×100. Tumor growth delay (TGD) was determined by the number of days needed (approximate) after dosing ceases for mean tumor volumes of dosed groups to reach the final mean tumor volume of the vehicle group.

Assay [5] deals with WSU-NHL cells. Nature of the assay: Cell proliferation (Cell titer Glo), WSU-NHL. The assay is classed as cell-based. The conditions noted are these: no NK cells, 24, 48 and 72 hours. As to the method: as §1
Assay [6] has as its system JVM2 cells. Kind of assay: Cell proliferation (Cell titer Glo), JVM2. Format: cell-based. The conditions noted are these: no NK cells, 24, 48 and 72 hours. As to the method: as §1
Assay [7] deals with Mec2 cells. Nature of the assay: Cell proliferation (Cell titer Glo), Mec2. Particulars: no NK cells, 24, 48 and 72 hours. Format: cell-based. As to the method: as §1
Assay [8] concerns JVM2 cells. Nature of the assay: ADCC assay with NK cells, JVM2 target cells. The assay is classed as cell-based. Particulars: JVM2 cells pre-treated 7 days with parsaclisib 0.3 to 20 μM or DMSO, E:T 2:1, tafasitamab 1:10 dilutions from 1 μg/ml, 4 hours, dead target cells by flow cytometry. As to the method: (§2) The cytotoxicity of tafasitamab and parsaclisib (INCB050465) alone and in combination was tested in the following cells lines: MEC-1 (CLL), MEC-2 (CLL), JVM-2 (Mantle Cell Lymphoma), WSU-NHL, Pfeiffer, Su-DHL4, and Su-DHL6.
(§3) Target cells were pre-treated for 7 days with various doses of parsaclisib in the range of 0.3 to 20 μM (parsaclisib alone group and tafasitamab and parsaclisib combination group). The tafasitamab alone group was pre-treated with DMSO for the same period of time.
NK cells were isolated from human primary PBMC from multiple donors using EasySep™ Human NK Cell Isolation Kit (STEMCELL Technologies) and frozen. NK cells were thawed and cultured overnight in medium supplemented with 2 IU/ml of IL-2 (Peprotech) 24 hours before the ADCC assay. […]
(§4) The cytotoxicity of tafasitamab alone was evaluated following the same procedure in cells that were treated with DMSO. […] After 4 hours incubation, cells were stained with Zombie Violet fixable cell viability dye (Biolegend 423114) and measured by flow cytometry to evaluate cell toxicity. […]
Data from two separately conducted experiments were analyzed to assess potential synergistic activity of tafasitamab and parsaclisib in JVM2 cells. […] Synergy scores were calculated using SynergyFinder 2.0 (https://synergyfinder.fimm.fi). […]
A general note: Flow cytometry measures light scatter and fluorescence of single cells or particles in a stream.

Assay [9] deals with Mec1 cells. Nature of the assay: ADCC assay with NK cells, Mec1 target cells. Format: cell-based. Particulars: Mec1 cells pre-treated 7 days with parsaclisib 0.3 to 20 μM or DMSO, E:T 2:1, tafasitamab 1:10 dilutions from 1 μg/ml, 4 hours, dead target cells by flow cytometry. As for the experimental part: as §2, §3
NK cells were isolated from human primary PBMC from multiple donors using EasySep™ Human NK Cell Isolation Kit (STEMCELL Technologies) and frozen. NK cells were thawed and cultured overnight in medium supplemented with 2 IU/ml of IL-2 (Peprotech) 24 hours before the ADCC assay.
The following controls were used in all experiments: (i) Target cells+NK cells without antibodies; (ii) Target cells+NK cells+huIgG1 isotype control antibody; and (iii) Target cells alone. […]
as §4

Turning to `CCOc1c(C(C)n2nc(C)c3c(N)ncnc32)cc(Cl)c(F)c1C1CNC(=O)C1` (stereo not drawn) [Parsaclisib, 4-{3-[1-(4-amino-3-methyl-1H-pyrazolo[3,4-d]pyrimidin-1-yl)ethyl]-5-chloro-2-ethoxy-6-fluorophenyl}pyrrolidin-2-one], the “cell proliferation (RLUs)” value in assay [1] was “proliferation was inhibited by the treatment of parsaclisib in time and dose dependent manners”; in assay [2], “showed sensitivity to neither”; in [3], “showed sensitivity to neither”; in assay [5], “proliferation was inhibited by the treatment of parsaclisib in time and dose dependent manners”. The “TGI (%)” value in [4] (A20 flank tumors in Balb/c mice, antibody 150 mg i.p. once weekly, parsaclisib 3 mg/kg by mouth twice a day, vs vehicle group) is reported as 26.6%. In addition, the “TGD” value in [4] (approximate days after dosing ceases for mean tumor volume to reach final mean tumor volume of vehicle group) worked out at 1.4 days.

B1: Tafasitamab: IgG1-G2/kappa Fc-engineered (S239D, I332E) monoclonal antibody targeting human CD19; heavy chain SEQ ID NO:2, light chain SEQ ID NO:3 (antibody)
heavy: EVQLVESGGGLVKPGGSLKLSCAASGYTFTSYVMHWVRQAPGKGLEWIGYINPYNDGTKYNEKFQGRVTISSDKSISTAYMELSSLRSEDTAMYYCARGTYYYGTRVFDYWGQGTLVTVSSASTKGPSVFPLAPSSKSTSGGTAALGCLVKDYFPEPVTVSWNSGALTSGVHTFPAVLQSSGLYSLSSVVTVPSSSLGTQTYICNVNHKPSNTKVDKKVEPKSCDKTHTCPPCPAPELLGGPDVFLFPPKPKDTLMISRTPEVTCVVVDVSHEDPEVQFNWYVDGVEVHNAKTKPREEQFNSTFRVVSVLTVVHQDWLNGKEYKCKVSNKALPAPEEKTISKTKGQPREPQVYTLPPSREEMTKNQVSLTCLVKGFYPSDIAVEWESNGQPENNYKTTPPMLDSDGSFFLYSKLTVDKSRWQQGNVFSCSVMHEALHNHYTQKSLSLSPGK
light: DIVMTQSPATLSLSPGERATLSCRSSKSLQNVNGNTYLYWFQQKPGQSPQLLIYRMSNLNSGVPDRFSGSGSGTEFTLTISSLEPEDFAVYYCMQHLEYPITFGAGTKLEIKRTVAAPSVFIFPPSDEQLKSGTASVVCLLNNFYPREAKVQWKVDNALQSGNSQESVTEQDSKDSTYSLSSTLTLSKADYEKHKVYACEVTHQGLSSPVTKSFNRGEC
On to B1, for which the “cell proliferation (RLUs)” value is “proliferation was inhibited by tafasitamab in time and dose dependent manners” in assay [6]; “proliferation was inhibited by tafasitamab in time and dose dependent manners” in [7]; “showed sensitivity to neither” in assay [2]; “showed sensitivity to neither” in [3]. The ADCC activity result in [8] and in assay [9] was “displayed ADCC activity in a dose dependent manner” in each case.
